pIC50: −log10 of the molar value.
Columns and labels:
[1] = biological target: Histone deacetylase 1/8 (Homo sapiens, UniProt Q13547+Q9BY41); experiment: In Vitro Enzyme Inhibition Assay - HDAC
Protocol: (§1) The effect of the compound on the enzymatic activity of pan-HDAC and two isoforms (HDAC1 and HDAC8) was examined using the HDAC-Glo I/II Assay and Screening System assay to assess the level of inhibition of HDAC protease activity and selectivity in each isoform. The proteins and detection reagents were from the HDAC-Glo™ I/II Assay and Screening System (Promega). A 1 mM stock solution of the compound was prepared in DMSO and diluted in a 5-fold gradient to create a series of 8 concentrations, and a specific volume of the highest concentration was diluted 25 times with HDAC Buffer to obtain 4× working solution of the compound. […] The 384-well plate was then read on a multifunctional microplate reader, with the Luminescence channel selected to record Luminescence values (RLU).

[2] = biological target: T1, Histone deacetylase 8 (Homo sapiens, UniProt Q9BY41); experiment: In Vitro Enzyme Inhibition Assay - HDAC
T1 sequence (Q9BY41 whole entry): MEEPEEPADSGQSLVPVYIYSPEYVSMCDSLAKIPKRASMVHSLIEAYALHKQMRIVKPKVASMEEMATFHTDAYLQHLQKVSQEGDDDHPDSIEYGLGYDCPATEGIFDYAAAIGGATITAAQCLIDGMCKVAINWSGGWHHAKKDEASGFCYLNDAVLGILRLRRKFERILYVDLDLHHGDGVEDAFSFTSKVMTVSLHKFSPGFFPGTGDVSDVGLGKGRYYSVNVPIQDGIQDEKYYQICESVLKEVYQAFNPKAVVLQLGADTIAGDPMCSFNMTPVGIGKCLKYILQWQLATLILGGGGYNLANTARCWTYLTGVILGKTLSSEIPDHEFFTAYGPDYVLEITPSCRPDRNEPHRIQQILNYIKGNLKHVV
Protocol: as §1

[3] = biological target: Histone deacetylase 1 (Homo sapiens, UniProt Q13547); experiment: In Vitro Enzyme Inhibition Assay - HDAC
Protocol: as §1

[4] = biological target: Lysine-specific histone demethylase 1A (Homo sapiens, UniProt O60341); experiment: In Vitro Enzyme Inhibition Assay - LSD1
Protocol: Initially, a master solution of 90 μM test compound (dissolved in DMSO) was prepared and sequentially diluted with DMSO in a 5-fold concentration gradient to yield a total of 9 concentrations of the compound working solution 1 (90×). Subsequently these 9 concentrations of working solution 1 were sequentially diluted by a 30-fold concentration gradient, i.e., 2 μL of working solution 1 was aspirated and added to 58 μL of Buffer, mixed on a vortex mixer with sufficient shaking to yield 9 concentrations of the screening test compound working solution 2 (3×). […] The mixture was incubated at room temperature for 15 minutes. […] Afterward, 2 μL of a termination solution (containing 5.4 mM 2-PCPA) was added to each well, mixed evenly, and incubated for another 15 minutes. Finally 4 μL of a pre-mixed antibody solution of Eu-anti H3K4 (PerkinElmer, TRF0404-D) and allophycocyanin (Prozyme, PJ27S) (1:1) was added to each well, mixed evenly, and incubated for 60 minutes.

Sequence of Histone deacetylase 1 (Q13547 whole entry): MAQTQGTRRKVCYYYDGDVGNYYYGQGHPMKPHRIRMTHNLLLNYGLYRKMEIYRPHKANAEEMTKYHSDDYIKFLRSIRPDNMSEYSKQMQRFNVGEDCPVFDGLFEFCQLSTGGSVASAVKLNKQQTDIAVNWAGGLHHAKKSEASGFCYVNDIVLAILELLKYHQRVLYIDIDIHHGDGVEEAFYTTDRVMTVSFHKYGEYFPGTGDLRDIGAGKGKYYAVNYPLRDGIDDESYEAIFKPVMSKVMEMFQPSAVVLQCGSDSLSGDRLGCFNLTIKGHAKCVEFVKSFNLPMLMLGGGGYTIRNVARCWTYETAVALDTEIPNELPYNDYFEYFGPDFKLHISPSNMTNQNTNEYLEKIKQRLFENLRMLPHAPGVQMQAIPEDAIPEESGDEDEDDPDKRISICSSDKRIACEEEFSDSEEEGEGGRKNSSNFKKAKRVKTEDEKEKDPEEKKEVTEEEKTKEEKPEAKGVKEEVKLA
Sequence of Histone deacetylase 1/8 (Q13547 whole entry, one chain of several, canonical isoform): as the sequence (Q13547 whole entry) above

pIC50 [1] | pIC50 [2] | pIC50 [3] | pIC50 [4] | SMILES
7.29 | 5.85 | – | 9.38 | COc1ccc(-c2cnc(N3CCC(NCc4ccc(/C=C/CC(=O)NO)cc4)CC3)c(C#N)c2-c2ccc(C#N)c(F)c2)cc1O [US20250304549, Example 169]
6.94 | – | – | – | O=C(/C=C/c1ccc(CNC(=O)c2cc(CN[C@@H]3C[C@H]3c3ccc(F)cc3)nc(-c3ccc(-n4cccn4)cc3)n2)cc1)NO [US20250304549, Example 232]
– | – | – | 8.13 | COc1ccc(C2=C(C3C=NC(C#N)=CC3)C(C#N)C(N3CCC(NCc4ccc(/C=C/C(=O)NO)cc4)CC3)C=C2)cc1O (stereo not given) [US20250304549, Example 267]
8.98 | 7.23 | 9.30 | 9.27 | COc1ccc(-c2cnc(N3CCCC(NCc4ccc(/C=C/C(=O)NO)cc4)CC3)c(C#N)c2-c2ccc(C#N)c(F)c2)cc1O (stereo not given) [US20250304549, Example 149]

Further lines, the compound ahead of its results:

SMILES | pIC50 [1] | pIC50 [2] | pIC50 [3] | pIC50 [4]
N#Cc1ccc(-c2c(-c3ccc(/C=C/C(=O)NO)c(O)c3)cnc(N3CCC(NCc4ccc(/C=C/C(=O)NO)cc4)CC3)c2C#N)cc1F [US20250304549, Example 90] | 7.71 | 7.20 | 7.97 | 8.10
COc1ccc(-c2cnc(N3CCC(NCc4ccc(/C=C/C(=O)NO)cc4)CC3)c(F)c2-c2ccc(C#N)c(F)c2)cc1O [US20250304549, Example 76] | 8.80 | 6.80 | – | –
CNC1CCN(C2N=CC(c3ccc(OCCCCCCC(=O)NO)c(O)c3)=C(c3ccc(C#N)c(F)c3)C2C#N)CC1 (stereo not given) [US20250304549, Example 24] | – | 6.93 | 8.08 | 9.39
Cc1ccc(-c2cnc(N3CCC(NCc4cnc(/C=C/C(=O)NO)nc4)CC3)c(C#N)c2-c2ccc(C#N)c(F)c2)cc1O [US20250304549, Example 148] | 8.61 | 7.23 | 9.37 | 8.98
COC1=C(OCCCCCCC(=O)NO)CC(C2=C(c3ccc(C#N)c(F)c3)N=C(N3CCC(N)CC3)N3C=CNC23)C=C1 (stereo not given) [US20250304549, Example 20] | – | 6.35 | 6.51 | 7.77

Reference: BindingDB's records for patent US20250304549 (Sichuan Huiyu Pharmaceutical, 2025)
